In US8703796B2, “3H-imidazo [4, 5-B] pyridine-6-carboxamides as anti-inflammatory agents” (Boehringer Ingelheim International GmbH, priority 2008, dated 2014) one finds inhibition data, which are given here for 27 compounds.

The assay addresses T1, recombinant human mPGES-1 (Homo sapiens, UniProt O14684).
T1 construct: made in house; host or cells: Rosetta E. coli (microsomal/membrane fraction)
T1 sequence (O14684 1-152): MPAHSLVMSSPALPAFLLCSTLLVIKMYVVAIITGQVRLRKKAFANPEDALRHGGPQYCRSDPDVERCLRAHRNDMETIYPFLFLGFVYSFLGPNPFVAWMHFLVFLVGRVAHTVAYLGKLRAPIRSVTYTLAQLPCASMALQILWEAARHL
Description: mPGES-1 inhibition, HTRF detection of PGE2. The format is biochemical. An outline of the steps:
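Microsomes from E. coli Rosetta expressing the enzyme, in 0.1 M KPi pH 7.4 with 2.5 mM GSH, were preincubated 25 min at room temperature with inhibitor in DMSO. PGH2 was added, the reaction stopped after one minute with acidified FeCl2, and PGE2 quantified by HTRF after 750-fold dilution.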
A general note: Time-resolved FRET reads energy transfer from a long-lived donor to a nearby acceptor.
In the case of `CCCCC[C@H](C)NC(=O)c1cnc2c(c1)nc(Nc1c(Cl)cccc1Cl)n2C` [Example 497, (S)-2-(2,6-Dichlorophenylamino)-N-(hept-2-yl)-3-methyl-3H-imidazo[4,5-b]pyridine-6-carboxamide], the inhibition at 10 µM is 98%.

On to `Cn1c(Nc2c(Cl)cc(F)cc2Cl)nc2cc(C(=O)NCc3ccccc3C(F)(F)F)c(OCC(F)F)nc21` [Example 871, 2-(2,6-Dichloro-4-fluoro-phenylamino)-5-(2,2-difluoro-ethoxy)-N-(2-trifluoromethyl-benzyl)-3-methyl-3H-imidazo[4,5-b]pyridine-6-carboxamide], for which the inhibition at 10 µM was determined as 100%.

In the case of `Cn1c(Nc2c(Cl)cncc2Cl)nc2cc(C(=O)N[C@H]3CC[C@H](C(F)(F)F)CC3)c(OCCF)nc21` [Example 833, 2-(3,5-Dichloro-pyridin-4-ylamino)-5-(2-fluoro-ethoxy)-N-(trans-4-trifluoromethyl-cyclohexyl)-3-methyl-3H-imidazo[4,5-b]pyridine-6-carboxamide], the inhibition at 10 µM came out at 100%.

For the compound `Cn1c(Nc2c(Cl)cccc2Cl)nc2cc(C(=O)Nc3ccc(Br)cc3)cnc21` [Example 463, N-(4-Bromophenyl)-2-(2,6-dichlorophenylamino)-3-methyl-3H-imidazo[4,5-b]pyridine-6-carboxamide], the inhibition at 10 µM stood at 97%.

As to `Cn1c(Nc2c(Cl)cccc2Cl)nc2cc(C(=O)N[C@H]3CC[C@H](C(F)(F)F)CC3)cnc21` [Example 174, 2-(2,6-Dichloro-phenylamino)-3-methyl-3H-imidazo[4,5-b]pyridine-6-carboxylic acid (trans-4-trifluoromethyl-cyclohexyl)-amide], the inhibition at 10 µM worked out at 99%.

For the compound `CC(=O)N(C)CCOc1nc2c(cc1C(=O)NCC(F)(F)C(F)(F)C(F)(F)C(F)(F)F)nc(Nc1c(Cl)cncc1Cl)n2C` [Example 811, 2-(3,5-Dichloro-pyridin-4-ylamino)-5-(2-(acetyl-methyl-amino)-ethoxy)-N-(2,2,3,3,4,4,5,5,5-nonafluoro-pentyl)-3-methyl-3H-imidazo[4,5-b]pyridine-6-carboxamide], the inhibition at 1 µM is 94%.

`Cc1ccnc(Br)c1Nc1nc2cc(C(=O)N[C@H]3CC[C@H](C(F)(F)F)CC3)c(OCC(F)F)nc2[nH]1` [Example 795, 2-(2-Bromo-4-methyl-pyridin-3-ylamino)-5-(2,2-difluoro-ethoxy)-N-(trans-4-trifluoromethyl-cyclohexyl)-3H-imidazo[4,5-b]pyridine-6-carboxamide]: the inhibition at 10 µM worked out at 98%.

Consider `Cn1c(Nc2c(Cl)cccc2Cl)nc2cc(C(=O)NCc3ccccc3C(F)(F)F)cnc21` [Example 468, 2-(2,6-Dichlorophenylamino)-3-methyl-N-(2-trifluoromethyl-benzyl)-3H-imidazo[4,5-b]pyridine-6-carboxamide], for which the inhibition at 10 µM came to 98%.

Regarding `Cn1c(Nc2c(Cl)cc(F)cc2Cl)nc2cc(C(=O)Nc3cc(C(F)(F)F)ccn3)c(OCC(F)F)nc21` [Example 817, 2-(2,6-Dichloro-4-fluoro-phenylamino)-5-(2,2-difluoro-ethoxy)-N-(4-trifluoromethyl-pyridin-2-yl)-3-methyl-3H-imidazo[4,5-b]pyridine-6-carboxamide], the inhibition at 10 µM stood at 96%.

Consider `COCCOc1nc2[nH]c(Nc3c(Cl)cncc3Cl)nc2cc1C(=O)NCc1ccccc1C(F)(F)F` [Example 800, 2-(3,5-Dichloro-pyridin-4-ylamino)-5-(2-methoxy-ethoxy)-N-((2-trifluoromethyl-phenyl)-methyl)-3H-imidazo[4,5-b]pyridine-6-carboxamide], for which the inhibition at 10 µM amounted to 98%.

As for `Cn1c(Nc2c(F)cccc2C(F)(F)F)nc2cc(C(=O)N[C@H]3CC[C@H](C(F)(F)F)CC3)c(OCC(F)F)nc21` [Example 780, 2-(2-Fluoro-6-trifluoromethyl-phenylamino)-5-(2,2-difluoro-ethoxy)-N-(trans-4-trifluoromethyl-cyclohexyl)-3-methyl-3H-imidazo[4,5-b]pyridine-6-carboxamide], the inhibition at 1 µM was determined as 100%.

Consider `Cn1c(Nc2c(F)cccc2Cl)nc2cc(C(=O)Nc3ccc(Br)cc3)cnc21` [Example 480, N-(4-Bromophenyl)-2-(2-chloro-6-fluorophenylamino)-3-methyl-3H-imidazo[4,5-b]pyridine-6-carboxamide], for which the inhibition at 10 µM is 100%.

`CCOc1nc2[nH]c(Nc3c(Cl)cncc3Cl)nc2cc1C(=O)Nc1ccc(Br)cc1` [Example 856, 2-(3,5-Dichloro-pyridin-4-ylamino)-5-ethoxy-N-(4-bromo-phenyl)-3H-imidazo[4,5-b]pyridine-6-carboxamide]: the inhibition at 10 µM came to 93%.

On to `O=C(NCc1ccccc1C(F)(F)F)c1cc2nc(Nc3c(Cl)cncc3Cl)[nH]c2nc1OCC(F)F` [Example 805, 2-(3,5-Dichloro-pyridin-4-ylamino)-5-(2,2-difluoro-ethoxy)-N-((2-trifluoromethyl-phenyl)-methyl)-3H-imidazo[4,5-b]pyridine-6-carboxamide], for which the inhibition at 10 µM turned out to be 98%.

As for `Cn1c(Nc2c(Cl)cncc2Cl)nc2cc(C(=O)NCC(F)(F)C(F)(F)C(F)(F)C(F)(F)F)c(OCC(F)F)nc21` [Example 840, 2-(3,5-Dichloro-pyridin-4-ylamino)-5-(2,2-difluoro-ethoxy)-N-(2,2,3,3,4,4,5,5,5-nonafluoropentyl)-3-methyl-3H-imidazo[4,5-b]pyridine-6-carboxamide], the inhibition at 10 µM turned out to be 99%.

Regarding `Cn1c(Nc2c(Cl)cncc2Cl)nc2cc(C(=O)NCC(F)(F)C(F)(F)C(F)(F)C(F)(F)F)c(OC3CCOC3)nc21` (stereo not drawn) [Example 849, 2-(3,5-Dichloro-pyridin-4-ylamino)-5-(tetrahydrofuran-3-yl-oxy)-N-(2,2,3,3,4,4,5,5,5-nonafluoro-pentyl)-3-methyl-3H-imidazo[4,5-b]pyridine-6-carboxamide], the inhibition at 10 µM was determined as 98%.

Consider `CCCCCCCNC(=O)c1cnc2c(c1)nc(Nc1c(Cl)cccc1Cl)n2C` [Example 448, 2-(2,6-Dichlorophenylamino)-N-heptyl-3-methyl-3H-imidazo[4,5-b]pyridine-6-carboxamide], for which the inhibition at 10 µM is 100%.

As to `CCOc1nc2[nH]c(Nc3c(Cl)cncc3Cl)nc2cc1C(=O)N[C@H]1CC[C@H](C(F)(F)F)CC1` [Example 842, 2-(3,5-Dichloro-pyridin-4-ylamino)-5-ethoxy-N-(trans-4-trifluoromethyl-cyclohexyl)-3H-imidazo[4,5-b]pyridine-6-carboxamide], the inhibition at 10 µM was found to be 92%.

Consider `COc1nc2c(cc1C(=O)NCc1ccccc1C(F)(F)F)nc(Nc1c(Cl)cccc1Cl)n2C` [Example 861, 2-(2,6-Dichloro-phenylamino)-5-methoxy-N-(2-trifluoromethyl-benzyl)-3-methyl-3H-imidazo[4,5-b]pyridine-6-carboxamide], for which the inhibition at 10 µM was found to be 100%.

`CC(=O)N(C)CCOc1nc2c(cc1C(=O)Nc1ccc(Br)cc1)nc(Nc1c(Cl)cncc1Cl)n2C` [Example 810, 2-(3,5-Dichloro-pyridin-4-ylamino)-5-(2-(acetyl-methyl-amino)-ethoxy)-N-(4-bromo-phenyl)-3-methyl-3H-imidazo[4,5-b]pyridine-6-carboxamide]: the inhibition at 10 µM amounted to 96%.

As to `Cn1c(Nc2c(Cl)ccc(Cl)c2F)nc2cc(C(=O)N[C@H]3CC[C@H](C(F)(F)F)CC3)c(OCC(F)F)nc21` [Example 787, 2-(3,6-Dichloro-2-fluoro-phenylamino)-5-(2,2-difluoro-ethoxy)-N-(trans-4-trifluoromethyl-cyclohexyl)-3-methyl-3H-imidazo[4,5-b]pyridine-6-carboxamide], the inhibition at 10 µM stood at 98%.

As to `COc1nc2c(cc1C(=O)NCc1ncccc1C(F)(F)F)nc(Nc1c(Cl)cccc1Cl)n2C` [Example 860, 2-(2,6-Dichloro-phenylamino)-5-methoxy-N-((3-trifluoromethyl-pyridin-2-yl)-methyl)-3-methyl-3H-imidazo[4,5-b]pyridine-6-carboxamide], the inhibition at 10 µM was determined as 100%.

Consider `CC1(C)CCCC(NC(=O)c2cnc3[nH]c(Nc4c(Cl)cccc4Cl)nc3c2)C1` (stereo not drawn) [Example 469, 2-(2,6-Dichlorophenylamino)-N-(3,3-dimethylcyclohexyl)-3H-imidazo[4,5-b]pyridine-6-carboxamide], for which the inhibition at 10 µM was 100%.

Turning to `Cn1c(Nc2c(Cl)cc(F)cc2Cl)nc2cc(C(=O)N[C@H]3CC[C@H](C(F)(F)F)CC3)c(OCC(F)(F)F)nc21` [Example 814, 2-(2,6-Dichloro-4-fluoro-phenylamino)-5-(2,2,2-trifluoro-ethoxy)-N-(trans-4-trifluoromethyl-cyclohexyl)-3-methyl-3H-imidazo[4,5-b]pyridine-6-carboxamide], the inhibition at 10 µM was 97%.

With `Cn1c(Nc2c(F)cccc2Cl)nc2cc(C(=O)N[C@H]3CC[C@H](C(F)(F)F)CC3)c(OCC(F)F)nc21` [Example 783, 2-(2-Chloro-6-fluoro-phenylamino)-5-(2,2-difluoro-ethoxy)-N-(trans-4-trifluoromethyl-cyclohexyl)-3-methyl-3H-imidazo[4,5-b]pyridine-6-carboxamide], the inhibition at 10 µM worked out at 100%.

In the case of `CN(C)CCOc1nc2[nH]c(Nc3c(Cl)cc(F)cc3Cl)nc2cc1C(=O)N[C@H]1CC[C@H](C(F)(F)F)CC1` [Example 864, 2-(2,6-Dichloro-4-fluoro-phenylamino)-5-(2-dimethylamino-ethoxy)-N-(trans-4-trifluoromethyl-cyclohexyl)-3H-imidazo[4,5-b]pyridine-6-carboxamide], the inhibition at 10 µM came to 91%.

As to `O=C(Nc1ccc(Br)cc1)c1cnc2[nH]c(Nc3c(Cl)cccc3Cl)nc2c1` [Example 401, N-(4-Bromophenyl)-2-(2,6-dichlorophenylamino)-3H-imidazo[4,5-b]pyridine-6-carboxamide], the inhibition at 10 µM worked out at 100%.

The term inhibition denotes the percentage by which the read-out fell short of the control.
